From ChEMBL document CHEMBL3351866, “Indole alkaloid glycosides from the aerial parts of Strobilanthes cusia” (2014) come the findings set out here.

Structures are written as SMILES. In brackets after ≈: the same amount, converted by molar mass. Activity calls are given as the source filed them. The calls are words filed in the database; no cut-off is given here.

This experiment has as its system Staphylococcus aureus. The experiment in a line: Antibacterial activity against Staphylococcus aureus assessed as growth inhibition after 24 hrs by broth microdilution assay. It is filed as functional. In general terms: In broth dilution the organism is exposed to a series of concentrations in liquid medium.
On to `COc1ccc(CCO[C@@H]2O[C@H](CO)[C@@H](OC(=O)/C=C/c3ccc(O)c(O)c3)[C@H](O[C@@H]3O[C@@H](C)[C@H](O)[C@@H](O)[C@H]3O)[C@H]2O)cc1O`, for which the outcome was inactive.

As for `C[C@@H]1O[C@@H](O[C@@H]2[C@@H](O)[C@H](OCCc3ccc(O)c4c3[C@]3(Nc5ccccc5C3=O)[C@@]3(Nc5ccccc5C3=O)O4)O[C@H](CO)[C@H]2OC(=O)/C=C/c2ccc(O)c(O)c2)[C@H](O)[C@H](O)[C@H]1O`, the outcome was inactive.

For `COC(=O)c1ccccc1NC(=O)c1[nH]c2ccccc2c1O[C@@H]1O[C@H](CO)[C@@H](O)[C@H](O)[C@H]1O`, the outcome was inactive.

In general, MIC refers to the lowest concentration found to suppress growth. Consider `O=C1/C(=C2/C(=O)N([C@@H]3O[C@H](CO)[C@@H](O)[C@H](O)[C@H]3O)c3ccccc32)Nc2ccccc21`, for which the MIC was found to be 62.5 µM (≈ 26.5 µg/mL).

In the case of `C[C@@H]1O[C@@H](O[C@@H]2[C@@H](O)[C@H](OCCc3ccc(O)c4c3[C@@]3(Nc5ccccc5C3=O)[C@]3(Nc5ccccc5C3=O)O4)O[C@H](CO)[C@H]2OC(=O)/C=C/c2ccc(O)c(O)c2)[C@H](O)[C@H](O)[C@H]1O`, the result was inactive.

`C[C@@H]1O[C@@H](O[C@@H]2[C@@H](O)[C@H](OCCc3ccc(O)c(O)c3)O[C@H](CO)[C@H]2OC(=O)/C=C/c2ccc(O)c(O)c2)[C@H](O)[C@H](O)[C@H]1O`: the outcome was inactive.

With `C[C@@H]1O[C@@H](O[C@@H]2[C@@H](O)[C@H](OCCc3ccc(O)c(O)c3)O[C@H](CO)[C@@H]2OC(=O)/C=C/c2ccc(O)c(O)c2)[C@H](O)[C@H](O)[C@H]1O`, the result was inactive.

As for `COc1ccc(CCO[C@@H]2O[C@H](COC(=O)/C=C/c3ccc(O)c(OC)c3)[C@@H](O)[C@H](O[C@@H]3O[C@@H](C)[C@H](O)[C@@H](O)[C@H]3O)[C@H]2O)cc1O`, the outcome was inactive.

On to `COC(=O)/C=C/c1[nH]c2ccccc2c1O[C@@H]1O[C@H](CO)[C@@H](O)[C@H](O)[C@H]1O`, for which the result was inactive.

Consider `COc1ccc(CCO[C@@H]2O[C@H](CO)[C@@H](OC(=O)/C=C/c3ccc(O)c(OC)c3)[C@H](O[C@@H]3O[C@@H](C)[C@H](O)[C@@H](O)[C@H]3O)[C@H]2O)cc1O`, for which the outcome was inactive.
